Laboratory results as given in patent publication US20240368122A1, “JAK2 INHIBITORS AND METHODS OF USE THEREOF” (RELAY THERAPEUTICS, INC., priority 2021, published 2024).
Read-outs that look alike come from different tables or passages of the source.

Experiments:
[1] = system: TF1 JAK2 V617F STAT3 reporter; test: Cellular TF1 STAT3 assay (luciferase reporter), JAK2 V617F; assay type: cell-based; conditions: read-out: Cell PD-TF1 JAK2 V617F STAT3 (IC50)
Method: (§1) Selected compounds of the present disclosure were tested in a Cellular TF1 STAT3 or STAT5 assay, to measure the degree of JAK2-mediated STAT3 or STAT5 phosphorylation, respectively. TF1 cells (immortalized erythroleukemia line) expressing either wildtype or V617F mutant JAK2 with a luciferase reporter were used.
(§2) Cell culture: Cells were put into antibiotic selection (1 ug/ml puro+500 ug/ml Geneticin) when first thawed then maintained in growth media without antibiotics. Cells were maintained in exponential growth phase, between 0.02-1 E6 cells/ml.
(§3) Compound preparation: Compounds were screened as 10-point dose response curves 1:3 dilutions. DMSO is used as the vehicle control. All wells were normalized to the same final DMSO concentration. Compounds were pre-spotted onto 384 well plates using an Echo acoustic dispenser, 50 nL of 1000× (10 mM top concentration) DMSO stock/well. Each compound is run in triplicate plates.
(§4) Cell plating: Cells were counted using Vi-Cell XR, then cells were spun down and resuspended in growth media to 200,000 cells/ml. Cells were added to plates containing compound. 10,000 cells/well in 50 ul volume using a Biomek liquid handler. Plates were briefly mixed on a shaker for 1 minute at 2500 rpm then placed in a 37° C., 5% CO2 incubator overnight for 18-20 hrs.
(§5) Measuring luciferase activity: ONE-glo reagent was brought to room temperature, and 25 μL of ONE-glo assay reagent was added to each well using Biomek liquid handler. The plates were incubated for 10 minutes at room temperature, then luminescence was measured on an Envision plate reader.

[2] = system: TF1 JAK2 V617F STAT5 reporter; test: Cellular TF1 STAT5 assay (luciferase reporter), JAK2 V617F; assay type: cell-based; conditions: read-out: Cell PD TF1 V617F STAT5 (IC50)
Method: as §1, §2, §3, §4, §5

[3] = molecular target: T1, JAK2 JH2 WT (V536-D812) [W659A, W777A, F794H solubilizing mutations] (Homo sapiens, UniProt O60674, F794H/W659A/W777A); test: Surface Plasmon Resonance (SPR) binding assay, JAK2 JH2 domain
T1 construct: **JAK2 JH2 WT (V536-D812) [W659A, W777A, F794H solubilizing mutations]; C-thrombin-avi-His6; thrombin cleavage site (C); His6 (C); purchased Biortus
T1 sequence (O60674 536-812 W659A/W777A/F794H): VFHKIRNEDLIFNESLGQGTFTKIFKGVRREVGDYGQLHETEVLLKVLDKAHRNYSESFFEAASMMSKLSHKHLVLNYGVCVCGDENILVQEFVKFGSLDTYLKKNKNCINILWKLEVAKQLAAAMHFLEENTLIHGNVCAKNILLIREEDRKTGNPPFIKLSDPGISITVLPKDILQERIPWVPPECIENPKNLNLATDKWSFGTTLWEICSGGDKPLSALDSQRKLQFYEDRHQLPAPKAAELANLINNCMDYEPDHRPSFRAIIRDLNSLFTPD
Method: Selected compounds of the present disclosure were tested in a Surface Plasmon Resonance (SPR) Assay to measure their binding kinetics and affinity for proteins of interest.
Prepare buffer: 50 mM HEPES pH 7.5, 150 mM NaCl, 0.05% (v/v) Tween, and 10% (v/v) glycerol were combined and pH was adjusted to 7.5, then filtered. 5 mM DTT, was added, and buffer without DMSO was reserved for compound resuspension. 2% (v/v) DMSO was added for assay buffer, and separately 1% DMSO was used to make buffer for resuspending compounds.
Prepare compounds: Using a Bravo liquid handler, 99 μL of 1% (v/v) DMSO assay buffer was added to 1 μL compounds in DMSO.
Run 8K Method: Biotin CAPture (CAP) chip surface was regenerated prior to run by: Inserting CAP chip into Biacore 8K, prime machine with assay buffer with 2% (v/v) DMSO; Setting instrument temperature to 20° C.; Conditioning surface with NaOH/GdnHCl reagents from CAP chip kit (60 seconds, 10 μL/min); and Capturing oligo-Streptavidin (SA) reagent from CAP kit (600 seconds, 1 μL/min), expected capture ˜2500 RU. JAK2 JH1 or JH2 protein was immobilized by preparing a sample of 0.5 uM JH1 or 0.4 uM JH2 protein diluted in assay buffer without DMSO and supplemented with 10 uM of a selected compound of the invention as a stabilizer (370 seconds, 5 uL/min), expected capture ˜1000 RU. Remaining biotin sites on SA were blocked with 1 uM biotin (30 seconds, 20 uL/min), then equilibrated for 1800 seconds at 100 uL/min. Compounds being assayed were run in single cycle kinetics: 4 doses with a top concentration of 5 uM (JH1) or 500 nM (JH2), dilution factor of 3, at 20° C., for a contact time of 60 seconds, and a dissociation time of 300 seconds (JH1) or 1200 seconds (JH2), at a flow rate of 30 uL/min. The surface was completely regenerated after each compound is run, and JH1 or JH2 protein was immobilized fresh prior to each new compound. Data were fitted kinetically with 1:1 binding model using Biacore Insight Evaluation Software.

[4] = Homo sapiens, TF-1, TF1 cells, JAK2 V617F

| Compound | IC50 ([1]; TF1 JAK2 V617F) | IC50 ([2]; TF1 JAK2 V617F) | Kd ([3]; SPR, JAK2 JH2 domain) | IC50 [1, 4] | IC50 [2, 4] | Kd [3] |
| --- | --- | --- | --- | --- | --- | --- |
| CNC(=O)c1nnc(NC(=O)C2CC2)cc1Nc1cccc(-c2ccc(C(=O)N(C)[C@H](C)c3nc(C)no3)nc2)c1OC (single isomer, unassigned) [Compound 65] | 500 to 5000 nM | 500 to 5000 nM | 0.01 to 10 nM | – | – | – |
| CNC(=O)c1nnc(NC(=O)C2CC2)cc1Nc1ccc(C#N)c(-c2ccc(C(=O)N(C)Cc3cc(C#N)ccn3)cc2)c1OC [Compound 272] | – | – | – | 500 to 5000 nM | 500 to 5000 nM | 0.01 to 10 nM |
| CNC(=O)c1nnc(NC(=O)C2CC2)cc1Nc1ccc(C)c(-c2cn(C3CN(Cc4cccc(C)n4)C3)nn2)c1OC [Compound 269] | – | – | – | 500 to 5000 nM | 500 to 5000 nM | 0.01 to 10 nM |
| CNC(=O)c1nnc(NC(=O)C2CC2)cc1Nc1cccc(-c2cnn(C3CN(Cc4cccc(C(=O)N5CCC(F)(F)C5)n4)C3)c2)c1OC [Compound 357] | – | – | – | 50 to 500 nM | 10 to 50 nM | 0.01 to 10 nM |
| CNC(=O)c1nnc(NC(=O)C2CC2)cc1Nc1cccc(-c2ccc(C(=O)N(C)C[C@@H]3Cc4ccccc4CO3)nc2)c1OC (single isomer, unassigned) [Compound 138] | 500 to 5000 nM | 5000 to 100000 nM | 10 to 50 nM | – | – | – |
| CNC(=O)c1nnc(NC(=O)C2CC2)cc1Nc1cccc(-c2ccc(C3CN(Cc4cc(C#N)ccn4)C3)nc2)c1OC [Compound 279] | – | – | – | 5000 to 100000 nM | 5000 to 100000 nM | 10 to 50 nM |
| COc1c(Nc2cc(NC(=O)C3CC3)nnc2-c2ncc[nH]2)cccc1-c1ccc(C(=O)N(C)Cc2cn(C)nc2C)nc1 [Compound 363] | – | – | – | 500 to 5000 nM | 50 to 500 nM | 0.01 to 10 nM |
| CNC(=O)c1nnc(NC(=O)C2CC2)cc1Nc1cccc(-c2ccc(C(=O)N(C)Cc3ccc(F)cc3)cc2)c1OC [Compound 95] | 5000 to 100000 nM | 5000 to 100000 nM | 10 to 50 nM | – | – | – |
| CNC(=O)c1nnc(NC(=O)C2CC2)cc1Nc1cccc(-c2cnn([C@H]3C[C@H](Cc4cccc(C#N)n4)C3)c2)c1OC [Compound 349] | – | – | – | 500 to 5000 nM | 500 to 5000 nM | 0.01 to 10 nM |
| CNC(=O)c1nnc(NC(=O)C2CC2)cc1Nc1ccc(Cl)c(-c2ccc(C(=O)N(C)Cc3ccn(C)n3)nc2)c1OC [Compound 223] | – | – | – | 500 to 5000 nM | 50 to 500 nM | 0.01 to 10 nM |
| CNC(=O)c1nnc(NC(=O)C2CC2)cc1Nc1ccc(C)c(-c2cn([C@@H]3CN(Cc4cccc(C)n4)[C@H]3C)nn2)c1OC (racemic) [Compound 270] | – | – | – | 500 to 5000 nM | 500 to 5000 nM | 0.01 to 10 nM |
| CNC(=O)c1nnc(NC(=O)C2CC2)cc1Nc1cccc(-c2cnn(C3CN(Cc4cccc(C#CC(C)(C)O)n4)C3)c2)c1OC [Compound 259] | – | – | – | 50 to 500 nM | 50 to 500 nM | 0.01 to 10 nM |
| CNC(=O)c1nnc(NC(=O)C2CC2)cc1Nc1cccc(-c2ncn(C3CN(Cc4ccccn4)C3)n2)c1OC [Compound 224] | – | – | – | 5000 to 100000 nM | 5000 to 100000 nM | 0.01 to 10 nM |
| CNC(=O)c1nnc(NC(=O)C2CC2)cc1Nc1cccc(-c2ccc(C(=O)N(CCOC)Cc3cccn(C)c3=O)nc2)c1OC [Compound 15] | 5000 to 100000 nM | 5000 to 100000 nM | 0.01 to 10 nM | – | – | – |
| CNC(=O)c1nnc(NC(=O)C2CC2)cc1Nc1cccc(-c2ccc(C3CN(Cc4cnccc4C(F)F)C3)nc2)c1OC [Compound 291] | – | – | – | 5000 to 100000 nM | 500 to 5000 nM | 10 to 50 nM |
| CNC(=O)c1nnc(NC(=O)C2CC2)cc1Nc1cccc(-c2cc(C3CN(Cc4ccccn4)C3)n(C)n2)c1OC [Compound 203] | – | – | – | 5000 to 100000 nM | 5000 to 100000 nM | 50 to 500 nM |
| CNC(=O)c1nnc(NC(=O)C2CC2)cc1Nc1cccc(-c2ccc(C(=O)N(C)Cc3cn4c(n3)CCCC4)nc2)c1OC [Compound 84] | 500 to 5000 nM | 5000 to 100000 nM | 10 to 50 nM | – | – | – |
| CNC(=O)c1nnc(NC(=O)C2CC2)cc1Nc1cccc(-c2cnc(C(=O)N(C)Cc3ccccn3)c(F)c2)c1OC [Compound 27] | 50 to 500 nM | 50 to 500 nM | 0.01 to 10 nM | – | – | – |
| CNC(=O)c1nnc(NC(=O)C2CC2)cc1Nc1cccc(-c2ccc(C(=O)N(C)[C@H](C)c3cc(C#N)ccn3)nc2)c1OC (single isomer, unassigned) [Compound 181] | 500 to 5000 nM | 500 to 5000 nM | 0.01 to 10 nM | – | – | – |
| CNC(=O)c1nnc(NC(=O)C2CC2)cc1Nc1cccc(-c2cnn(C3CN([C@@H](C)c4cccc(C#N)n4)C3)c2)c1OC (single isomer, unassigned) [Compound 286] | – | – | – | 50 to 500 nM | 50 to 500 nM | 0.01 to 10 nM |
| CNC(=O)c1nnc(NC(=O)C2CC2)cc1Nc1cccc(-c2cnc(C3CN(Cc4ccccn4)C3)nc2)c1OC [Compound 325] | – | – | – | 5000 to 100000 nM | 5000 to 100000 nM | 0.01 to 10 nM |

More lines, now with the values ahead:

| IC50 ([1]; TF1 JAK2 V617F) | IC50 ([2]; TF1 JAK2 V617F) | Kd ([3]; SPR, JAK2 JH2 domain) | IC50 [1, 4] | IC50 [2, 4] | Kd [3] | Compound |
| --- | --- | --- | --- | --- | --- | --- |
| 500 to 5000 nM | 500 to 5000 nM | 0.01 to 10 nM | – | – | – | CNC(=O)c1nnc(NC(=O)C2CC2)cc1Nc1cccc(-c2cnn(C3CN(Cc4ncc(C)s4)C3)c2)c1OC [Compound 123] |
| – | – | – | 50 to 500 nM | 50 to 500 nM | 0.01 to 10 nM | CNC(=O)c1nnc(NC(=O)C2CC2)cc1Nc1cccc(-c2cnn(C3CN(Cc4cccc(S(C)(=O)=O)n4)C3)c2)c1OC [Compound 304] |
| – | – | – | 50 to 500 nM | 50 to 500 nM | 0.01 to 10 nM | CNC(=O)c1nnc(NC(=O)C2CC2)cc1Nc1cccc(-c2cnn(C3CN(Cc4cccc(C5(O)CC5)n4)C3)c2)c1OC [Compound 274] |
| – | – | – | 500 to 5000 nM | 500 to 5000 nM | 0.01 to 10 nM | CNC(=O)c1nnc(NC(=O)C2CC2)cc1Nc1cccc(-c2cnn([C@@H]3CCN(Cc4ccccn4)C3)c2)c1OC (single isomer, unassigned) [Compound 334] |
| – | – | – | 50 to 500 nM | 50 to 500 nM | 0.01 to 10 nM | CNC(=O)c1nnc(NC(=O)C2CC2)cc1Nc1cccc(-c2cnn(C3CN(Cc4cccc(C#CCO)n4)C3)c2)c1OC [Compound 255] |
| – | – | – | 50 to 500 nM | 50 to 500 nM | 0.01 to 10 nM | CNC(=O)c1nnc(NC(=O)C2CC2)cc1Nc1cccc(-c2cnn(C3CN(Cc4cccc(C5CC5)n4)C3)c2)c1OC [Compound 276] |
| – | – | – | 500 to 5000 nM | 50 to 500 nM | 0.01 to 10 nM | CNC(=O)c1nnc(NC(=O)C2CC2)cc1Nc1cccc(-c2cnn(C3CN(Cc4cccc(C(=O)C(C)C)n4)C3)c2)c1OC [Compound 309] |
| – | – | – | 50 to 500 nM | 50 to 500 nM | 0.01 to 10 nM | CNC(=O)c1nnc(NC(=O)C2CC2)cc1Nc1cccc(-c2cnn(C3CN(Cc4cccc(C5COC5)n4)C3)c2)c1OC [Compound 343] |
| 500 to 5000 nM | 500 to 5000 nM | 0.01 to 10 nM | – | – | – | CNC(=O)c1nnc(NC(=O)C2CC2)cc1Nc1cccc(-c2cnn(C3CN(Cc4cc(F)ccc4F)C3)c2)c1OC [Compound 128] |
| – | – | – | 50 to 500 nM | 50 to 500 nM | 0.01 to 10 nM | CNC(=O)c1nnc(NC(=O)C2CC2)cc1Nc1cccc(-c2cnn(C3CN(Cc4cc(Cl)ccn4)C3)c2)c1OC [Compound 250] |
| 500 to 5000 nM | 500 to 5000 nM | 0.01 to 10 nM | – | – | – | CNC(=O)c1nnc(NC(=O)C2CC2)cc1Nc1cccc(-c2cnn(C3CN(Cc4ccccc4F)C3)c2)c1OC [Compound 90] |
